US8795632B2, “Disease animal model for chronic pain” (Astellas Pharma Inc., priority 2008, dated 2014)

Experiments:
rats = settings: single intraperitoneal administration of reserpine in rats; Non-patent Reference 13; cited from earlier work
Sprague-Dawley rats [1] = assay: Cold sensitivity (acetone method) after reserpine single administration; format: in vivo, rat; settings: reserpine 3 mg/kg single s.c.
Procedure: Measurement of cold sensitivity was carried out in accordance with the method of Choi et al. (Choi et al., Pain, 59, 369-376, 1994). After adaptation of each rat to a wire mesh bottom cage for measurement, 50 μl of acetone was sprayed to the plantar surface of the right hind paw of the rat using a syringe for insulin injection. The number of reactions of the right hind paw (flinching, lifting and leg licking) occurred during 1 minute just after the spraying was measured and used as the index of cold sensitivity. At each point of time of the measurement, the acetone spraying was carried out 3 times at 5 minute intervals and the average was used as the measured vale. […]
Influences of the reserpine single administration upon the muscle pressure pain threshold value, skin pain sensation threshold value, cold sensitivity and heat sensitivity were examined in accordance with the following protocol. […] The muscle pressure pain threshold value, skin pain sensation threshold value, cold sensitivity and heat sensitivity before the reserpine treatment (base lines) were measured and then they were divided into a solvent (0.5% acetic acid aqueous solution) group and a reserpine (3 mg/kg) group (the number of animals per group was 6). […]
All of the measured values were expressed as average value±standard error. […]

Sprague-Dawley rats [2] = assay: Skin pain sensation threshold value (von Frey filaments) after repeated administration of reserpine; format: in vivo, rat; settings: for time after reserpine final administration until which skin pain sensation threshold value was statistically significantly low vs solvent group: reserpine 1 mg/kg s.c. once a day for 3 days
Procedure: Measurement of muscle pressure pain threshold value was carried out in accordance with the method of Schafers et al. (Schafers M. et al., Pain, 104, 579-588, 2003). A pressure stimulus of gradually increasing to 250 g at the maximum was added to the rat right hind leg gastrocnemius muscle. […] The measurement was carried out 3 times at each point of time of the measurement, and the average was used as the measurement value. Measurement of the skin pain sensation threshold value was carried out in accordance with the method of Chaplan et al. (Chaplan et al., J. Neurosci. Methods, 53, 55-63, 1994). This was measured using a series of von Frey filaments having different diameters which may add a constant pressure. […] The von Frey filament was applied using the up and down method. That is, by firstly applying a filament of middle diameter, a filament having one rank smaller diameter was applied when the withdrawal reaction was observed or a filament having one rank larger diameter was applied when the withdrawal reaction was not observed. The skin pain sensation threshold value at each point of time of the measurement was calculated as a hind paw withdrawal reaction threshold value (g) using the calculation formula reported by Chaplan et al. (Chaplan et al., described above). Influences of reserpine upon the muscle pressure pain threshold value and skin pain sensation threshold value were examined by the following protocol. A total of 24 animals for each of male and female rats were used. After measuring muscle pressure pain threshold value and skin pain sensation threshold value before the reserpine treatment (base line), they were divided based on the reserpine administration doses into a solvent (0.5% acetic acid aqueous solution) group, a reserpine 0.1 mg/kg group, a 0.3 mg/kg group and a 1 mg/kg group (the number of animals per one group was 6). The solvent or reserpine was subcutaneously administered on the back of the rats of each group once a day for 3 days. All of the administration volume of the solvent or reserpine was set to 1 ml per 1 kg body weight of each animal. After final administration of the solvent or reserpine, the muscle pressure pain threshold value and skin pain sensation threshold value of each rat were measured 1, 3, 5, 7, 10, 14 and 21 days thereafter.
All of the measured values were expressed as average value±standard error. Statistical significance test of the measured values between the reserpine administration groups and the solvent administration group at each point of time was carried out by a two-way analysis of variance and the Bonferroni method. Probability value (P) of less than 5% was judged as statistically significant (P<0.05 was expressed as * in the graphs).

Sprague-Dawley rats [3] = assay: Forced swimming test (immobility time) after repeated administration of reserpine; format: in vivo, rat; settings: reserpine 1 mg/kg s.c. once a day for 3 days
Procedure: Male Sprague-Dawley rats (7 weeks old, Japan SLC, Hamamatsu, Japan) were used as the animal. The forced swimming test was carried out by modifying the method of Porsolt et al. (1977) in the following manner. A soft wire equipped with a magnet (1 mm in diameter, 3 mm in length) was attached to both forelimbs of each animal, and the animal was allowed to swim in a cylindrical plastic water bath (20 cm in diameter, 45 cm in height) filled with water (24±1° C.) to a depth of 30 cm. In this test, the immobility time of each animal was measured using a forced swimming automatic measuring device (MicroAct Scratching Test version 1.06; Neuroscience, Tokyo, Japan) which detects movement of the forelimbs equipped with the magnet, through a coil around the cylinder.
Influence of reserpine upon the immobility time in the forced swimming test was examined in accordance with the following protocol. […] All of the measured values were expressed as average value±standard error. Statistical difference of the measured values between the reserpine administration groups and the vehicle administration group in each test schedule was carried out by the Student's t-test. Probability value (P) of less than 5% was judged as statistically significant (P<0.05 was expressed as * in the graphs).

## COC(=O)[C@H]1[C@H]2C[C@@H]3c4[nH]c5cc(OC)ccc5c4CCN3C[C@H]2C[C@@H](OC(=O)c2cc(OC)c(OC)c(OC)c2)[C@@H]1OC [reserpine]
rats
  sensitivity to thermal stimulation: causes hypersensitivity to thermal stimulation
  time within which hypersensitivity to thermal stimulation disappears: ≤ 24 h
Sprague-Dawley rats [1]; after 2, 3, 5, 7 and 10 days
  cold sensitivity: number of reactions: significantly increased
Sprague-Dawley rats [1]; within 24 hours after administration
  cold sensitivity: number of reactions: did not show significant increase
Sprague-Dawley rats [2]; female rats
  time after reserpine final administration until which skin pain sensation threshold value was statistically significantly low vs solvent group: 14 days
Sprague-Dawley rats [2]; male and female rats, reserpine 0.1, 0.3, 1 mg/kg s.c. once a day for 3 days, two-way analysis of variance vs solvent
  skin pain sensation threshold value: significantly reduced
Sprague-Dawley rats [2]; male rats
  time after reserpine final administration until which skin pain sensation threshold value was statistically significantly low vs solvent group: 21 days
Sprague-Dawley rats [2]; reserpine 1 mg/kg group, s.c. once a day for 3 days
  skin pain sensation threshold value: markedly reduced
Sprague-Dawley rats [3]; after 3, 5, 7 and 14 days of the final administration (P=0.0007, P=0.004, P<0.0001, P=0.0008)
  immobility time in forced swimming test vs vehicle administration group: significant increase
Sprague-Dawley rats [3]; after 1 day of the final administration (P=0.625, Student's t-test)
  immobility time in forced swimming test vs vehicle administration group: Significant increase in the immobility time by the reserpine administration was not found
